Read-outs that look alike come from different tables or passages of the source.
How the values were obtained:
Septoria tritici = assay: Microtiter test against the Septoria leaf spot pathogen (Septtr); type: cell-based; conditions: single active substance, microtiter plate, day 7, 405 nm
Plasmopara viticola = assay: Greenhouse: activity against downy mildew of grapevine; type: in vivo; conditions: single active substance, grapevine leaves sprayed 1 day before inoculation
Description: (§1) The active substances, separately or individually, were prepared as a stock solution, using 25 mg of active substance, which was made up to 10 ml with a mixture of acetone and/or DMSO and the emulsifier Uniperol® EL (wetter based on ethoxylated alkylphenols, with emulsifying and disputing activity) in the volumetric solvent/emulsifier ratio of 99 to 1. Then, the mixtures were made up to 100 ml with water. This stock solution was diluted with the above-described solvent/emulsifier/water mixture to give the active substance concentration stated below. As an alternative, the active substances were used as a commercially available ready mix and made up to the active substance concentration stated with water.
(§2) The visually determined values for the percentage of affected leaf area were converted into efficacies as % of the untreated control:
(§3) The efficacy (E) is calculated as follows, using Abbot's formula: E=(1−α/β)·100 • α corresponds to the fungal disease level of the treated plants in % and • β corresponds to the fungal disease level of the untreated (control) plants in %
(§4) At an efficacy of 0 the disease level of the treated plants corresponds to that of the untreated control plants; at an efficacy of 100, the treated plants are not diseased.
(§5) The expected efficacies for active substance combinations were determined using the Colby formula (Colby, S. R. (Calculating synergistic and antagonistic responses of herbicide Combinations”, Weeds, 15, p. 20-22, 1967) and compared with the observed efficacies.
(§6) Colby Formula: E=x+y−x·y/100 • E expected efficacy, expressed in % of the untreated control, when employing the mixture of the active substances A and B at the concentrations a and b • x efficacy, expressed in % of the untreated control, when employing active substance A at concentration a • y efficacy, expressed in % of the untreated control, when employing active substance B at concentration b
Leaves of pot-grown grapevines were sprayed to runoff point with aqueous suspension at the active substance concentration stated below. On the next day, the abaxial sides of the leaves were inoculated with an aqueous sporangia suspension of Plasmopara viticola. Then, the grapevines were placed first for 24 hours into a water-vapor-saturated chamber at 24° C. and then for 5 days in the greenhouse at temperatures of between 20 and 30° C. After this time, the plants were returned into a humid chamber for 16 hours in order to accelerate the eruption of the sporangiophores. Then, the extent of the disease development on the abaxial sides of the leaves was determined visually.

Phytophthora infestans [1] = type: cell-based; conditions: single active substance, microtiter plate, day 7, 405 nm
Botrytis cinerea = assay: Greenhouse: 1-day protective activity against gray mold on capsicum leaves; type: in vivo; conditions: single active substance, protective 1 day, rated after 5 days
Description: as §1, §2, §3, §4, §5, §6
Capsicum seedlings were allowed to develop 2-3 leaves properly and were then sprayed to runoff point with an aqueous suspension of the active substance concentration stated below. On the next day, the treated plants were inoculated with a spore suspension of Botrytis cinerea in a 2% strength Biomalz solution. Thereafter, the test plants were placed into a controlled-environment cabinet at 22 to 24° C. in the dark and with high atmospheric humidity. After 5 days, it was possible to visually determine the extent of the fungal disease level on the leaves in %.

Phytophthora infestans [2] = type: in vivo; conditions: single active substance, tomato, protective spray, rated after 6 days
Puccinia recondita [3] = assay: Greenhouse: protective activity against leaf rust of wheat; type: in vivo; conditions: single active substance
Description: as §1, §2
(§7) The efficacy (E) is calculated as follows, using Abbot's formula: E=(1−α/β)·100 • α corresponds to the fungal disease level of the treated plants in % and • β corresponds to the fungal disease level of the untreated (control) plants in % […]
(§8) The expected efficacies for active substance combinations were determined using the Colby formula (Colby, S. R. (Calculating synergistic and antagonistic responses of herbicide Combinations”, Weeds, 15, p. 20-22, 1967) and compared with the observed efficacies. […]

Puccinia recondita [4] = assay: Greenhouse: curative activity against leaf rust of wheat; type: in vivo; conditions: single active substance
Description: as §1, §2, §7, §8

Phakopsora pachyrhizi = assay: Greenhouse: curative activity against soybean rust; type: in vivo; conditions: single active substance
Description: as §1, §2, §7, §8

Pyrenophora teres = assay: Greenhouse: 1-day protective activity against barley net blotch disease; type: in vivo, Pyrenophora [syn. Drechslera] teres; conditions: single active substance, protective 1 day, rated after 6 days
Description: as §1, §2, §7, §8

[5] = 0.063 ppm, efficacy as % of untreated control (Abbot)

## CCC/C(=N\OCC)C1=C(O)CC(C2CCCSC2)CC1=O (stereo not drawn) [Cycloxydim (I.Ba), cycloxydim, reference compound]
Septoria tritici; 63 ppm
  Observed effect (%): 39%
Plasmopara viticola; 0.063 ppm
  Observed effect (%): 0%
Phytophthora infestans [1]; 1 ppm
  Observed effect (%): 9%
Phytophthora infestans [1]; 4 ppm
  Observed effect (%): 5%
Phytophthora infestans [1]; 16 ppm
  Observed effect (%): 13%

## COC[C@H](C)N(C(=O)CCl)c1c(C)csc1C [Dimethenamid-P (I.Ea)]
Plasmopara viticola; 0.016 ppm
  Observed effect (%): 0%

## COCC(C)N(C(=O)CCl)c1c(C)csc1C (stereo not drawn) [Dimetheneamid-P (I.Ea), dimethenamid-P, reference compound]
Botrytis cinerea; 0.25 ppm
  Observed effect (%): 0%
Phytophthora infestans [2]; [5]
  Observed effect (%): 22%

## CP(=O)(O)CCC(N)C(=O)O (stereo not drawn) [Glufosinate (I.Ab)]
Plasmopara viticola; 0.063 ppm
  Observed effect (%): 0%
Plasmopara viticola; 0.25 ppm
  Observed effect (%): 0%
Phytophthora infestans [1]; 1 ppm
  Observed effect (%): 3%
Phytophthora infestans [1]; 4 ppm
  Observed effect (%): 12%
Phytophthora infestans [1]; 16 ppm
  Observed effect (%): 20%

## O=C(O)CNCP(=O)(O)O [Glyphosate (I.Aa), glyphosate, reference compound]
Puccinia recondita [3]; 0.063 ppm
  Observed effect (%): 0%
Plasmopara viticola; 0.016 ppm
  Observed effect (%): 0%
Puccinia recondita [4]; 0.063 ppm, curative (sprayed 1 day after inoculation)
  Observed effect (%): 0%
Phytophthora infestans [1]; 1 ppm
  Observed effect (%): 4%
Phytophthora infestans [1]; 4 ppm
  Observed effect (%): 1%
Phytophthora infestans [1]; 16 ppm
  Observed effect (%): 13%

## Cc1nc2ncnn2c(N)c1-c1ccc(Cl)c(Cl)c1 [II-1, 6-(3,4-dichlorophenyl)-5-methyl-[1,2,4]triazolo[1,5-a]pyrimidin-7-ylamine]
Septoria tritici; 16 ppm
  Observed effect (%): 12%

## CCCCCCCCc1nc2ncnn2c(N)c1CC [II-6, 6-ethyl-5-octyl-[1,2,4]triazolo[1,5-a]pyrimidin-7-ylamine]
Puccinia recondita [3]; 4 ppm
  Observed effect (%): 0%
Plasmopara viticola; 16 ppm
  Observed effect (%): 44%
Puccinia recondita [4]; 4 ppm, curative
  Observed effect (%): 0%
Botrytis cinerea; 16 ppm
  Observed effect (%): 0%
Phytophthora infestans [1]; 16 ppm
  Observed effect (%): 25%

## CCCCCCCCc1c(CC)nc2ncnn2c1N [II-7, 5-ethyl-6-octyl-[1,2,4]triazolo[1,5-a]pyrimidin-7-ylamine]
Plasmopara viticola; 1 ppm
  Observed effect (%): 0%
Plasmopara viticola; 4 ppm
  Observed effect (%): 22%
Phytophthora infestans [1]; 1 ppm
  Observed effect (%): 7%

## CCc1nc2ncnn2c(N)c1CCC(C)CC(C)(C)C (stereo not drawn) [II-8, 5-ethyl-6-(3,5,5-trimethylhexyl)-[1,2,4]triazolo[1,5-a]pyrimidin-7-ylamine]
Plasmopara viticola; 1 ppm
  Observed effect (%): 33%
Phytophthora infestans [2]; 4 ppm
  Observed effect (%): 22%
Phytophthora infestans [1]; 4 ppm
  Observed effect (%): 1%

## CCCCCCCCc1c(COC)nc2ncnn2c1N [II-10, 5-methoxymethyl-6-octyl-[1,2,4]triazolo[1,5-a]pyrimidin-7-ylamine]
Phakopsora pachyrhizi; 16 ppm, curative
  Observed effect (%): 0%
Plasmopara viticola; 4 ppm
  Observed effect (%): 0%
Plasmopara viticola; 16 ppm
  Observed effect (%): 44%
Botrytis cinerea; 16 ppm
  Observed effect (%): 0%
Phytophthora infestans [2]; 16 ppm
  Observed effect (%): 0%
Phytophthora infestans [1]; 0.25 ppm
  Observed effect (%): 10%
Pyrenophora teres; 16 ppm
  Observed effect (%): 0%

## Cc1cnc(C2=NC(=O)C(C)(C(C)C)N2)c(C(=O)O)c1 (stereo not drawn) [Imazapic (I.Cd)]
Plasmopara viticola; 0.063 ppm
  Observed effect (%): 0%
Plasmopara viticola; 0.25 ppm
  Observed effect (%): 0%
Phytophthora infestans [1]; 1 ppm
  Observed effect (%): 4%
Phytophthora infestans [1]; 4 ppm
  Observed effect (%): 4%
Phytophthora infestans [1]; 16 ppm
  Observed effect (%): 12%

## CC(C)C1(C)N=C(c2ncccc2C(=O)O)NC1=O (stereo not drawn) [Imazapyr (I.Ca)]
Plasmopara viticola; 0.063 ppm
  Observed effect (%): 0%
Phytophthora infestans [1]; 1 ppm
  Observed effect (%): 1%
Phytophthora infestans [1]; 4 ppm
  Observed effect (%): 9%
Phytophthora infestans [1]; 16 ppm
  Observed effect (%): 8%

## CC(C)C1(C)N=C(c2nc3ccccc3cc2C(=O)O)NC1=O (stereo not drawn) [Imazaquin (I.Cc)]
Plasmopara viticola; 0.25 ppm
  Observed effect (%): 0%
Phytophthora infestans [1]; 1 ppm
  Observed effect (%): 8%
Phytophthora infestans [1]; 4 ppm
  Observed effect (%): 11%
Phytophthora infestans [1]; 16 ppm
  Observed effect (%): 23%

## CCc1cnc(C2=NC(C)(C(C)C)C(=O)N2)c(C(=O)O)c1 (stereo not drawn) [Imazethapyr (I.Cb)]
Plasmopara viticola; 0.25 ppm
  Observed effect (%): 0%
Phytophthora infestans [1]; 1 ppm
  Observed effect (%): 3%
Phytophthora infestans [1]; 4 ppm
  Observed effect (%): 8%
Phytophthora infestans [1]; 16 ppm
  Observed effect (%): 9%

## C[n+]1ccc(-c2cc[n+](C)cc2)cc1 [Paraquat (I.Fa), paraquat, reference compound]
Phakopsora pachyrhizi; 0.25 ppm, curative (sprayed 1 day after inoculation)
  Observed effect (%): 0%
Botrytis cinerea; 0.25 ppm
  Observed effect (%): 0%
Phytophthora infestans [2]; [5]
  Observed effect (%): 0%
Phytophthora infestans [2]; 0.25 ppm
  Observed effect (%): 0%
Phytophthora infestans [1]; 1 ppm
  Observed effect (%): 4%
Phytophthora infestans [1]; 4 ppm
  Observed effect (%): 5%
Phytophthora infestans [1]; 16 ppm
  Observed effect (%): 7%

## CCC(CC)Nc1c([N+](=O)[O-])cc(C)c(C)c1[N+](=O)[O-] [Pendimethalin (I.Da)]
Plasmopara viticola; 0.25 ppm
  Observed effect (%): 0%
Phytophthora infestans [1]; 1 ppm
  Observed effect (%): 7%
Phytophthora infestans [1]; 4 ppm
  Observed effect (%): 16%
Phytophthora infestans [1]; 16 ppm
  Observed effect (%): 29%
Phytophthora infestans [1]; 63 ppm
  Observed effect (%): 38%

## CCC/C(=N\OCC)C1=C(O)CC(CC(C)SCC)CC1=O (stereo not drawn) [Sethoxydim (I.Bc), sethoxydim, reference compound]
Plasmopara viticola; 0.25 ppm
  Observed effect (%): 0%
Phytophthora infestans [1]; 1 ppm
  Observed effect (%): 2%
Phytophthora infestans [1]; 4 ppm
  Observed effect (%): 5%
Phytophthora infestans [1]; 16 ppm
  Observed effect (%): 14%
Pyrenophora teres; 0.25 ppm
  Observed effect (%): 0%
